The values that follow come from patent publication US12122756B2, “Biflavone compound against I-type herpes simplex virus, and preparation method therefor and use thereof” (priority 2022, dated 2024).

By inhibition is commonly meant the change of the read-out against control, counted positive when it falls. Broadly, the IC50 is the concentration needed to halve the response being measured. A high value points to weaker potency in that assay.

For this data set, the system named is HSV-I. Nature of the data set: Cytopathic effect (CPE) assay: inhibition of pathological changes of Vero cells induced by HSV-I (CCK-8). Type of data set: cell-based, Herpes simplex virus type I. How it is done:
(1) Determination of the inhibitory activities of the test drugs on pathological changes of Vero cells induced by HSV-I using the cytopathic effect (CPE) assay: Vero cells were seeded in a 96-well plate and grew into a monolayer the next day. 100TCID50 HSV-I was added to infect cells, and then the cell maintenance solution containing different concentrations of the test drug was replaced, and a cell control group was included. The cells were cultured in an incubator for 72 hours. Then, the inhibitory effect of the drug on virus-induced cytopathic changes was measured using the CCK-8 assay, and thus the 50% inhibiting concentration (IC50) of the drug was calculated.

For the molecule `COc1c(O)c(Cc2c(O)c(OC)c(O)c3c(=O)c(-c4ccc(O)c(S(=O)(=O)[O-])c4)coc23)c2occ(-c3ccc(O)c(S(=O)(=O)[O-])c3)c(=O)c2c1O.[Na+].[Na+]` [Compound 2, 8,8″-methylene-di-(sodiumtectorigenin-5′-sulphonate)], the “Average optical density (OD)” value amounted to 0.33 ± 0.04 (5.97 μg/ml, n = 6); 0.35 ± 0.05 (11.94 μg/ml, n = 6); 0.44 ± 0.07 (23.88 μg/ml, n = 6); 0.65 ± 0.06 (47.75 μg/ml, n = 6); 0.95 ± 0.04 (95.50 μg/ml, n = 6); 1.06 ± 0.05 (191.00 μg/ml, n = 6). Also, the “Average optical density (OD)” value (382.00 μg/ml, n = 6) was 1.10 ± 0.03. In addition, where the note is “CPE method”, the “inhibitory effect on HSV-I induced cytopathic changes (in words)” value is reported as “significant inhibitory effect”. Further, the inhibition at 5.97 µg/mL (Human alphaherpesvirus 1, Vero, 5.97 μg/ml, n = 6, read-out: Inhibition rate (%)) is -0.36%. Besides, the inhibition at 11.94 µg/mL (Human alphaherpesvirus 1, Vero, 11.94 μg/ml, n = 6, read-out: Inhibition rate (%)) was 2.87%. Moreover, for the setting “Human alphaherpesvirus 1, Vero, 23.88 μg/ml, n = 6, read-out: Inhibition rate (%)”, the inhibition at 23.88 µg/mL worked out at 14.5%. The inhibition at 47.75 µg/mL (Human alphaherpesvirus 1, Vero, 47.75 μg/ml, n = 6, read-out: Inhibition rate (%)) worked out at 40.7%. Moreover, the inhibition at 95.5 µg/mL (Human alphaherpesvirus 1, Vero, 95.50 μg/ml, n = 6, read-out: Inhibition rate (%)) turned out to be 79.9%. Further, the inhibition at 191 µg/mL (Human alphaherpesvirus 1, Vero, 191.00 μg/ml, n = 6, read-out: Inhibition rate (%)) was found to be 94%. Moreover, the inhibition at 382 µg/mL (Human alphaherpesvirus 1, Vero, 382.00 μg/ml, n = 6, read-out: Inhibition rate (%)) turned out to be 99.2%. It took 54.5 µg/mL to reach half-maximal inhibition (Human alphaherpesvirus 1, against HSV-I in Vero cells, Probit regression) (IC50). Further, the “SI (selection index = TC50/IC50)” value (TC50 on Vero cells / IC50 against HSV-I) turned out to be 32.117.
